{"source": "patent US20090149432A1", "about": "“METHODS FOR ADMINISTERING CORTICOSTEROID FORMULATIONS” (priority 2007, published 2009)", "key": {"[1]": {"test": "Plasma budesonide pharmacokinetics in asthmatic children, twice a day nebulization over six weeks", "assay_type": "in vivo, human (asthmatic children)", "details": "for AUC0-inf (geometric mean): nebulized; for AUC0-inf (geometric mean) / Cmax (geometric mean) / Cmax at 42 days / Cmax / half-life at 42 days / Tmax at 42 days / half-life / Tmax: asthmatic children; for Cmax at 42 days / Cmax / half-life at 42 days / Tmax at 42 days / half-life / Tmax / Tmax at 6 weeks: human, plasma, inhaled; for Cmax at 42 days / Cmax: read-out: Cmax (geometric mean); for half-life at 42 days / half-life: read-out: T1/2 (geometric mean); for Tmax at 42 days / Tmax: read-out: Tmax (geometric mean) (converted); for Tmax at 6 weeks: read-out: Tmax averaged over 6 weeks (converted)", "method": "The budesonide was administered twice a day by a nebulizer for six weeks (42 days). In one subset, budesonide was administered at a dose of 0.25 mg. In the other subset, budesonide was administered at a dose of 0.135 mg.\nTmaxs averaged about 4.3 minutes (SD±0.63 minutes) for the two dosage strengths and time of treatment that ranged from zero to six weeks. […] The Cmaxs and AUCs (area under the curve) obtained for the two different dosage strengths were below levels that would induce side effects due to systemic exposure. […] Murphy et al.'s dosing regimen of 1.0 mg twice a day (bid) was the same as that for Pulmicort Respules when the pharmacokinetics of Pulmicort Respules was being assessed by Astrazeneca (Pharmacokinetics section of Pulmicort Respules label insert)."}, "[2]": {"system": "hypothalamus-pituitary-adrenal (HPA) axis", "test": "ACTH-induced plasma cortisol levels in children after six weeks of treatment", "assay_type": "in vivo, human (children)", "details": "doses of Tables 3 and 4", "description": "An important measure of systemic exposure to corticosteroids is the level of endogenous cortisols in the blood. Excess exogenous corticosteroids will suppress natural production of cortisols due to the suppression of the adrenal cortex. […] Both these changes are statistically insignificant."}}, "note": "Like-named read-outs stand apart in the source and are kept apart here.", "data": [{"smiles": "CCCC1O[C@@H]2C[C@H]3[C@@H]4CCC5=CC(=O)C=C[C@]5(C)[C@H]4[C@@H](O)C[C@]3(C)[C@]2(C(=O)CO)O1", "note": "(some centres unmarked) [Budesonide, budesonide]", "values": [{"measurement": "AUC0-inf (geometric mean)", "setting": "[1]; 0.135 mg dose twice a day, Day 42", "result": "22,071 pg-min/mL"}, {"measurement": "AUC0-inf (geometric mean)", "setting": "[1]; 0.135 mg dose twice a day, First Dose", "result": "10,238 pg-min/mL"}, {"measurement": "change of AUC0-inf", "setting": "[1]; 0.135 mg dose, by week six of dosing", "result": "more than doubled"}, {"measurement": "change of Cmax", "setting": "[1]; 0.135 mg dose, initial dosing to week six", "result": "more than tripling"}, {"measurement": "Cmax (geometric mean)", "setting": "[1]; 0.135 mg dose, Day 42", "result": 0.6721, "unit": "ng/mL"}, {"measurement": "Cmax (geometric mean)", "setting": "[1]; 0.135 mg dose, First Dose", "result": 0.2144, "unit": "ng/mL"}, {"measurement": "Cmax to AUC0-inf ratio", "setting": "[1]; 0.135 mg dose, standard deviation less than approximately 0.006 min^−1", "result": "approximately 0.02 min^−1"}, {"measurement": "AUC0-inf (geometric mean)", "setting": "[1]; 0.25 mg dose twice a day, Day 42", "result": "33,116 pg-min/mL"}, {"measurement": "AUC0-inf (geometric mean)", "setting": "[1]; 0.25 mg dose twice a day, Day 42, listed as budesonide", "result": "about 33,116 pg-min/mL"}, {"measurement": "AUC0-inf (geometric mean)", "setting": "[1]; 0.25 mg dose twice a day, First Dose", "result": "20,849 pg-min/mL"}, {"measurement": "AUC0-inf (geometric mean)", "setting": "[1]; 0.25 mg dose twice a day, First Dose, listed as budesonide", "result": "about 20,849 pg-min/mL"}, {"measurement": "Cmax to AUC0-inf ratio", "setting": "[1]; 0.25 mg dose, standard deviation less than approximately 0.007 min^−1", "result": "approximately 0.025 min^−1"}, {"measurement": "change of Cmax", "setting": "[1]; 0.25 mg, after 42 days (six weeks) of dosing", "result": "at least double"}, {"measurement": "increase of AUC0-inf, times its value at first dose", "setting": "[1]; 0.25 mg, repeat dosing for six weeks", "result": "about 1.6 times"}, {"measurement": "Cmax at 42 days", "setting": "[1]; 0.135 mg, Day 42", "result": "~0.672", "unit": "ng/mL"}, {"measurement": "Cmax", "setting": "[1]; 0.135 mg, First Dose", "result": "~0.214", "unit": "ng/mL"}, {"measurement": "Cmax at 42 days", "setting": "[1]; 0.25 mg, Day 42", "result": 0.746, "unit": "ng/mL"}, {"measurement": "Cmax", "setting": "[1]; 0.25 mg, First Dose", "result": 0.321, "unit": "ng/mL"}, {"measurement": "half-life at 42 days", "setting": "[1]; 0.135 mg dose, Day 42", "result": 71.3, "unit": "min"}, {"measurement": "Tmax at 42 days", "setting": "[1]; 0.135 mg dose, Day 42", "result": 4.4, "unit": "min"}, {"measurement": "half-life", "setting": "[1]; 0.135 mg dose, First Dose", "result": 42.1, "unit": "min"}, {"measurement": "Tmax", "setting": "[1]; 0.135 mg dose, First Dose", "result": 4.4, "unit": "min"}, {"measurement": "Tmax at 6 weeks", "setting": "[1]; 0.135 mg dose", "result": 4.4, "unit": "min"}, {"measurement": "half-life at 42 days", "setting": "[1]; 0.25 mg dose, Day 42", "result": 75.7, "unit": "min"}, {"measurement": "Tmax at 42 days", "setting": "[1]; 0.25 mg dose, Day 42", "result": 5, "unit": "min"}, {"measurement": "half-life", "setting": "[1]; 0.25 mg dose, First Dose", "result": 155, "unit": "min"}, {"measurement": "Tmax", "setting": "[1]; 0.25 mg dose, First Dose", "result": 3.3, "unit": "min"}, {"measurement": "Tmax at 6 weeks", "setting": "[1]; 0.25 mg dose", "result": 4.1, "unit": "min"}, {"measurement": "HPA axis suppression", "setting": "[2]", "result": "no evidence of hypothalamus-pituitary-adrenal (HPA) axis suppression"}]}]}
